From patent US20100261711A1, “SELECTIVE ANTICONVULSANT AGENTS AND THEIR USES” (WiSys Technology Foundation, priority 2009, published 2010) come the findings set out here.

For series [1], the system named is minimal motor deficit (ataxia, abnormal gait). Briefly: Toxicity (TOX), minimal motor deficit, rats. In kind it is in vivo. The note with it: for TOX (Rotorod Test), animals toxic/tested: Rat IP, 100 mg/kg; for Tox, animals toxic/tested: Rat PO, 50 mg/kg. On the procedure:
(§1) The benzodiazepine derivative compounds selective for GABAa receptor subunits were tested for the ability to suppress seizures in several standard rat and mouse models of epilepsy. […] The standard models incorporated into anticonvulsant screening include the maximal electroshock test (MES), the subcutaneous Metrazol test (scMet), and evaluations of toxicity (TOX). The data for each condition is presented as a ratio of either the number of animals protected or toxic (loss of locomotor activity) over the number of animals tested at a given time point and dose.
(§2) To assess a compound's undesirable side effects (toxicity), animals are monitored for overt signs of impaired neurological or muscular function. […] When a mouse is placed on a rod that rotates at a speed of 6 rpm, the animal can maintain its equilibrium for long periods of time. The animal is considered toxic if it falls off this rotating rod three times during a 1-min period. In rats, minimal motor deficit is indicated by ataxia, which is manifested by an abnormal, uncoordinated gait. Rats used for evaluating toxicity are examined before the test drug is administered, since individual animals may have peculiarities in gait, equilibrium, placing response, etc., which might be attributed erroneously to the test substance.

For series [2], the system named is Metrazol-induced clonic seizures. Briefly: Subcutaneous Metrazol test (scMet), rats. The series is classed as in vivo. On the procedure: as §1
(§3) Subcutaneous injection of the convulsant Metrazol produces clonic seizures in laboratory animals. […] Animals are pretreated with various doses of the test compound (in a similar manner to the MES test, although a dose of 50 mg/kg (po) is the standard for Test 2 scMet). At the previously determined TPE of the test compound, the dose of Metrazol which will induce convulsions in 97% of animals (CD97: 85 mg/kg mice) is injected into a loose fold of skin in the midline of the neck. […] An episode of clonic spasms, approximately 3-5 seconds, of the fore and/or hindlimbs, jaws, or vibrissae is taken as the endpoint.

Series [3] deals with minimal muscular or neurological impairment. Briefly: Toxicity (TOX), rotorod procedure, mice. In kind it is in vivo. How it is done:
as §1, §2
Background: In the rotarod test animals must keep their balance on a rotating rod.

For series [4], the system named is Metrazol-induced clonic seizures. Briefly: Subcutaneous Metrazol test (scMet), mice. The series is classed as in vivo. On the procedure: as §1, §3
Series [5] concerns MES-induced seizures. Briefly: Maximal electroshock test (MES), mice. The note with it: Mice IP. In kind it is in vivo. On the procedure: as §1
(§4) The MES is a model for generalized tonic-clonic seizures and provides an indication of a compound's ability to prevent seizure spread when all neuronal circuits in the brain are maximally active. These seizures are highly reproducible and are electrophysiologically consistent with human seizures. For all tests based on MES convulsions, 60 Hz of alternating current (50 mA in mice, 150 in rats) is delivered for by corneal electrodes which have been primed with an electrolyte solution containing an anesthetic agent (0.5% tetracaine HCL). For Test 1, mice are tested at various intervals following doses of 30, 100 and 300 mg/kg of test compound given by ip injection of a volume of 0.01 mL/g. In Test 2, rats are tested after a dose of 30 mg/kg (po) in a volume of 0.04 mL/g. Test 8 uses varying doses administered via i.p. injection, again in a volume of 0.04 ml/g. […] In Antiepileptic Drugs, Levy, R. H. M., Meldrum, B. S., Eds.; Raven Press: New York, pp 99-110, 1995b.).
For orientation: Protection in the maximal electroshock model is a classic sign of anticonvulsant action.

Series [6] concerns the target T1, GABAA/α2 (α2β3γ2 GABAA receptors) (Homo sapiens, UniProt P18507+P47869).
T1 construct: expressed in transfected cells
Briefly: Competitive binding assay, [3H]flunitrazepam. The settings on record: Binding Affinity at GABAA/α2, αxβ3γ2, [3H]flunitrazepam competition. How it is done: (§5) The GABAA subunit selectivity of several compounds prepared as described above were determined using competitive binding assays. […] Membranes were harvested with a Brandel cell harvester followed by three ice-cold washes onto polyethyleneimine-pretreated (0.3%) Whatman GF/C filters. Filters were dried overnight and then soaked in Ecoscint, a liquid scintillation cocktail (National Diagnostics; Atlanta, Ga.). Bound radioactivity was quantified by liquid scintillation counting. Membrane protein concentrations were determined using an assay kit from Bio-Rad (Hercules, Calif.) with bovine serum albumin as the standard.

For series [7], the target named is T2, GABAA/α5 (α5β3γ2 GABAA receptors) (Homo sapiens, UniProt P18507+P31644).
T2 construct: expressed in transfected cells
Briefly: Competitive binding assay, [3H]flunitrazepam. The note with it: Binding Affinity at GABAA/α5, αxβ3γ2, [3H]flunitrazepam competition. On the procedure: as §5

Series [8] addresses T3, GABAA/α1 (α1β3γ2 GABAA receptors) (Homo sapiens, UniProt P14867+P18507).
T3 construct: expressed in transfected cells
Briefly: Competitive binding assay, [3H]flunitrazepam. The note with it: Binding Affinity at GABAA/α1, αxβ3γ2, [3H]flunitrazepam competition. On the procedure:
as §5

The subject of series [9] is MES-induced seizures. Briefly: Maximal electroshock test (MES), rats. In kind it is in vivo. The note with it: Rat PO, 50 mg/kg. How it is done:
as §1, §4

The test system of series [10] is 6 Hz psychomotor seizure. Briefly: Minimal clonic seizure (6 Hz) test. The series is classed as in vivo. The settings on record: Mice IP, 44 mA, 0.5 Hr. An excerpt: Like the maximal electroshock (MES) test, the minimal clonic seizure (6 Hz) test is used to assess a compound's efficacy against electrically-induced seizures but uses a lower frequency (6 Hz) and longer duration of stimulation (3 s). Test compounds are pre-administered to mice via ip injection. […] Untreated mice will display seizures characterized by a minimal clonic phase followed by stereotyped, automatistic behaviors described originally as being similar to the aura of human subjects with partial seizures. Animals not displaying this behavior are considered protected (Table 10).

Series [11] concerns the target T4, GABAA/α6 (α6β3γ2 GABAA receptors) (Homo sapiens, UniProt P18507+Q16445).
T4 construct: expressed in transfected cells
Briefly: Competitive binding assay, [3H]flunitrazepam. On the procedure: as §5

The mark [12] stands for this setting: Mice, 50 mg/kg PO (Mice IP), 0.5 hr.
Setting [13] is: Mice, 50 mg/kg PO (Mice IP), 4.0 hr.

Broadly, the melting point is the temperature of the solid-liquid transition. In the case of `CNC1=Nc2ccc(C#C[Si](C)(C)C)cc2C(c2ccccc2)=NC1`, the melting point lay in the range of 210 to 211 °C.

`CN1C(=O)CN=C(c2ccccn2)c2cc(C#C[Si](C)(C)C)ccc21` registered a melting point of 194 to 195 °C.

With `C[Si](C)(C)C#Cc1ccc2c(c1)C(c1ccccc1)=NCc1c(C(=O)OCC(F)(F)F)ncn1-2`, the melting point was 107 to 110 °C.

In turn, `CC(C)(C)OC(=O)c1ncn2c1CN=C(c1ccccc1)c1cc(Br)ccc1-2` came in with a melting point of 222 to 223 °C.

Turning to `C#Cc1ccc2c(c1)C(c1ccccc1)=NCc1c(C(=O)OCC)ncn1-2` [XHe-II-053 (7), Ethyl 8-acetylenyl-6-phenyl-4H-benzo[f]imidazo[1,5-a][1,4]diazepine-3-carboxylate], the “TOX (Rotorod Test), animals toxic/tested” value in series [1] (0.5 hr) is reported as 2/4; in series [1] (4.0 hr), 0/4; in series [3] (Mice IP, 100 mg/kg, 0.5 hr) it was 0/8; in series [3] (Mice IP, 100 mg/kg, 4.0 hr), 0/4; in series [3] (setting [12]), 2/4; in [3] (setting [13]) it was 0/4. The “scMet, animals protected/tested” value in [2] (Rat IP, 100 mg/kg, 0.5 hr) was 1/4; in [2] (Rat IP, 100 mg/kg, 4.0 hr), 0/4; in [4] (Mice IP, 100 mg/kg, 0.5 hr), 0/1; in [4] (Mice IP, 100 mg/kg, 4.0 hr), 0/1; in series [4] (setting [12]), 1/4; in series [4] (setting [13]) it was 0/4. The “MES, animals protected/tested” value in series [5] (100 mg/kg, 0.5 hr) is listed as 0/3; in series [5] (100 mg/kg, 4.0 hr), 0/3.

On to `CCOC(=O)c1ncn2c1CN=C(c1ccccc1)c1cc(Cl)ccc1-2`, for which the melting point is 174 to 175 °C.

The compound `CCOC(=O)c1ncn2c1CN=C(c1ccccn1)c1cc(C#C[Si](C)(C)C)ccc1-2` returned a melting point of 205 to 206 °C.

For the compound `CNC1=Nc2ccc(Br)cc2C(c2ccccc2)=NC1`, the melting point was 234 to 235 °C.

Consider `C[Si](C)(C)C#Cc1ccc2c(c1)C(c1ccccn1)=NCC(=O)N2`, for which the melting point fell in the range of 242 to 243 °C.

With `C#Cc1ccc2c(c1)C(c1ccccn1)=NCC(=O)N2C`, the melting point lay within 190 to 191 °C.

In general, Ki refers to the equilibrium dissociation constant of an inhibitor or competing ligand from its target. Low readings indicate a stronger hold on the target, high ones a looser hold on the target. A word on the ED50: it is the midpoint of the dose-response relation. As to `C#Cc1ccc2c(c1)C(c1ccccc1)=N[C@@H](C)c1nnc(C)n1-2` [SH-TS-CH3 (143), (4S)-8-Ethynyl-1,4-dimethyl-6-phenyl-4H-benzo[f][1,2,4]triazolo[4,3-a][1,4]diazepine], the Ki in series [6] came out at 50.1 nM; in series [7], 8.1 nM; in [8], 107 nM. Also, the “Tox, animals toxic/tested” value in [1] (0.5 h), in [1] (1.0 h), in series [1] (2.0 h), in series [1] (4.0 h) and in series [1] ([…]) was 0/4 in each case. Further, the “scMet, animals protected/tested” value in series [2] (Rat PO, 50 mg/kg, 0.5 h) is reported as 1/4; in [2] (Rat PO, 50 mg/kg, 1.0 h) it was 0/4^5; in series [2] (Rat PO, 50 mg/kg, 2.0 h) it was 2/4^25; in series [2] (Rat PO, 50 mg/kg, 4.0 h) it was 0/4^5; in series [2] (Rat PO, 50 mg/kg, […]) it was 0/4^5; in series [4] (Mice IP, 3 mg/kg, 0.5 Hr) it was 2/4. For the same compound, the “scMet, animals protected/tested” value in [4] (Mice IP, 10 mg/kg, 0.5 Hr) is reported as 4/4; in series [4] (Mice IP, 30 mg/kg, 0.5 Hr) it was 1/1; in [4] (Mice IP, 30 mg/kg, 4.0 Hr), 0/1; in series [4] (Mice IP, 100 mg/kg, 0.5 hr) it was 1/1; in series [4] (Mice IP, 100 mg/kg, 4.0 hr) it was 1/1; in [4] (Mice IP, 300 mg/kg, 0.5 Hr), 1/1. Further, the “scMet, animals protected/tested” value in series [4] (Mice IP, 300 mg/kg, 4.0 Hr) is recorded as 1/1. The “MES, animals protected/tested” value in series [9] (0.5 h) is recorded as 0/4; in [9] (1.0 h), 0/4; in [9] (2.0 h), 0/4; in series [9] (4.0 h), 0/4; in [9] ([…]) it was 0/4; in series [5] (3 mg/kg, 0.5 Hr), 0/4. Moreover, the “MES, animals protected/tested” value is listed as 0/4 in series [5] (10 mg/kg, 0.5 Hr); 1/1 in [5] (30 mg/kg, 0.5 Hr); 0/1 in series [5] (30 mg/kg, 4.0 Hr); 3/3 in series [5] (100 mg/kg, 0.5 hr); 0/3 in series [5] (100 mg/kg, 4.0 hr); 1/1 in series [5] (300 mg/kg, 0.5 Hr). The “MES, animals protected/tested” value in [5] (300 mg/kg, 4.0 Hr) is given as 1/1. Moreover, the “TOX (Rotorod Test), animals toxic/tested” value in series [3] (Mice IP, 3 mg/kg, 0.5 Hr) was 0/8; in [3] (Mice IP, 10 mg/kg, 0.5 Hr) it was 5/8^14; in series [3] (Mice IP, 30 mg/kg, 0.5 Hr), 4/4^14; in series [3] (Mice IP, 30 mg/kg, 4.0 Hr), 0/2; in series [3] (Mice IP, 100 mg/kg, 0.5 hr) it was 8/8^14; in series [3] (Mice IP, 100 mg/kg, 4.0 hr), 0/4. In addition, the “TOX (Rotorod Test), animals toxic/tested” value in series [3] (Mice IP, 300 mg/kg, 0.5 Hr) is 4/4^13; in series [3] (Mice IP, 300 mg/kg, 4.0 Hr), 2/2^14. The “6 Hz ED50 Biological Response, protected/tested” value is 4/8 in series [10] (3 mg/kg), 5/8 in series [10] (6 mg/kg) and 8/8 in series [10] (10 mg/kg). For the same compound, in series [10] (Mus musculus, ip, 0.5 h, read-out: ED50 (6 Hz)), the ED50 turned out to be 3.98 mg/kg.

`O=C(OCC(Cl)(Cl)Cl)c1ncn2c1CN=C(c1ccccc1)c1cc(Br)ccc1-2` came in with a melting point of 113 to 116 °C.

With `O=C(OCC(F)(F)F)c1ncn2c1CN=C(c1ccccc1F)c1cc(Br)ccc1-2` [JYI-49, Trifluoroethyl-8-bromo-6-(2′-fluorophenyl)-4H-benzo[f]imidazo[1,5-a][1,4]diazepine-3-carboxylate], the Ki in [6] turned out to be 2.38 nM; in series [7], 6.7 nM; in series [8], 1.87 nM; in series [11], 3390 nM.

The compound `O=C(OCC(F)(F)F)c1ncn2c1CN=C(c1ccccc1)c1cc(Br)ccc1-2` had a melting point of 202 to 204 °C.
